# Test results: patent EP0940081A1, “Combinations of active agents and disinfectants, preservatives and antiseptics containing same” (Bode Chemie GmbH & Co., priority 1998, dated 1999)
# Experiments:
# [1] = test system: FL-Linie (menschliche Amnionzellen); assay: Cytotoxicity, cell count of monolayer culture after 24 h exposure; assay type: cell-based, human; details: for Median der Zellzahl: 24 h
# Experimental: Methodik: Die Zytotoxizität wird an der FL-Linie (menschliche Amnionzellen) geprüft. 2-3 Tage nach der Zelleinsaat werden die Zellen, nachdem sie als einschichtige Zellkultur (Monolayer) vorliegen, nach Medienwechsel für 24 h mit der Prüfsubstanz exponiert, danach abgelöst und die Zellzahl in % zur Kontrolle mit dem Zellzähler Universal 87001 (mölab, Hilden) ermittelt.
# [2] = test system: Sporen von Bacillus subtilis var. niger ATCC 9372; assay: Sporicidal activity on spore test strips; assay type: cell-based; details: Monowirkstoff; Einwirkungszeit 3 Tage
# Source text: Methodik: Kommerzielle Teststreifen mit 10^6 Sporen von Bacillus subtilis var. niger ATCC 9372 (BAG-Bio Strips, Biologische Analysensystem GmbH Lich) wurden für 3 Tage in eine Lösung der Prüfsubstanz eingelegt. Danach wurden die Teststreifen in eine Nährlösung überführt und 7 Tage bebrütet.
# [3] = test system: humanen Amnionepithelzellen; assay type: cell-based, human
# Source text: Methodik: Die Untersuchungen wurden an einer Perfusionszellkultur mit humanen Amnionepithelzellen durchgeführt. Der Glucoseverbrauch wurde kontinuierlich von 1 bis 96 Stunden biosensorisch gemessen (Jülich et al., im Druck). Die Prüfsubstanzen wirkten von der 25. bis 48. Stunde ein.
# Pseudomonas aeruginosa = assay: Agar incorporation test, bacteriostatic activity; assay type: cell-based; parameters: key to Bakteriostatische Wirksamkeit (Wachstum): ⊕⊕: ungehemmtes Wachstum; ⊕: vermindertes Wachstum; -: absolute Hemmung (a. H.); details: for Bakteriostatische Wirksamkeit (Wachstum): 24 h bei 36 °C
# Source text: (§1) Methodik: Percarbamid und Dodecylthiouroniumchlorid werden unter städigem Durchmischen bis zur vollständigen Homogenisierung erwärmt. Die Prüfung der Kombination im Vergleich zu den entsprechenden Monowirkstoffen auf bakteriostatische Wirksamkeit erfolgte im Agarinkorporationstest. Die zu untersuchenden Substanzen wurden in Wasser standardisierter Härte gelöst. Die Konzentration der Testsubstanzen im Nähragar wurde in einer geometrischen Reihe auf der Basis 2 abgestuft. Zum Beimpfen der Testplatten wurden die im Beispiel 1 genannten Testkeime 6 h in Caseinpepton-Sojamehlpepton-Lösung bebrütet und so in eine logarithmische Wachstumsphase gebracht. Danach wurden die Agarplatten sternförmig sektorenweise mit jeweils einer ? abgestrichenen Öse beimpft. Der Sektor von Proteus mirabilis wurde durch Gräben abgetrennt, um das Schwärmen zu verhindern. Nach 24 h Bebrütung bei 36 °C erfolgte die Bewertung des Bakterienwachstums unter Vergleich mit substanzfreien Kontrollplatten nach folgendem Schema: ++++ ungehemmtes Wachstum +++ geringe Wachstumshemmung (maximal ¾ des Wachstums der Kontrollen) ++ mäßige Wachstumshemmung (maximal ½ des Wachstums der Kontrollen) + starke Wachstumshemmung (maximal ¼ des Wachstums der Kontrollen) Das sog. ? verminderte Wachstum" (v. W.) umfaßt die Bereiche + bis +++ - absolute Hemmung (a. H.)
# (§2) In den Tabellen 5, 6 und 7 bedeuten ⊕⊕ ungehemmtes Wachstum und ⊕ vermindertes Wachstum.
# Escherichia coli = assay: Agar incorporation test, bacteriostatic activity; assay type: cell-based; parameters: key: ⊕⊕: ungehemmtes Wachstum; ⊕: vermindertes Wachstum; -: absolute Hemmung (a. H.); details: 24 h bei 36 °C
# Source text: as §1, §2
# Staphylococcus aureus = assay: Agar incorporation test, bacteriostatic activity; assay type: cell-based; parameters: key: ⊕⊕: ungehemmtes Wachstum; ⊕: vermindertes Wachstum; -: absolute Hemmung (a. H.); details: 24 h bei 36 °C
# Source text: as §1, §2
# Enterococcus faecium = assay: Agar incorporation test, bacteriostatic activity; assay type: cell-based; parameters: key: ⊕⊕: ungehemmtes Wachstum; ⊕: vermindertes Wachstum; -: absolute Hemmung (a. H.); details: 24 h bei 36 °C
# Source text: as §1, §2
# Proteus mirabilis = assay: Agar incorporation test, bacteriostatic activity; assay type: cell-based; parameters: key: ⊕⊕: ungehemmtes Wachstum; ⊕: vermindertes Wachstum; -: absolute Hemmung (a. H.); details: 24 h bei 36 °C
# Source text: as §1, §2
# [4] = Konzentration in Wasser 0,0015 %
# [5] = Konzentration in Wasser 0,003 %
# [6] = Konzentration in Wasser 0,006 %
# [7] = Konzentration in Wasser 0,012 %
# [8] = Konzentration in Wasser 0,025 %
substance,measurement,setting,value
Wasserstoffperoxid,Zellwachstum,[1],vollständigen Inhibierung des Zellwachstums
same,Median der Zellzahl,"[1]; Prüfkonzentration 0,001 %","17,9 % der Kontrolle"
same,Median der Zellzahl,"[1]; Prüfkonzentration 0,0015 %","7,3 % der Kontrolle"
same,Konzentration erforderlich zur Erreichung dieses Effektes (Reduktion der Sporen von 6 log-Stufen),[2],"0,6%"
same,Glucosestoffwechsel der FL-Zellen,[3],"signifikante, aber reversible Verminderung"
same,Bakteriostatische Wirksamkeit (Wachstum),"Pseudomonas aeruginosa; Konzentration in Wasser 0,1 %",-
same,Bakteriostatische Wirksamkeit (Wachstum),"Pseudomonas aeruginosa; Konzentration in Wasser 0,2 %",-
same,Bakteriostatische Wirksamkeit (Wachstum),"Pseudomonas aeruginosa; Konzentration in Wasser 0,4 %",-
same,Bakteriostatische Wirksamkeit (Wachstum),"Pseudomonas aeruginosa; Konzentration in Wasser 0,05 %",-
same,Bakteriostatische Wirksamkeit (Wachstum),"Pseudomonas aeruginosa; Konzentration in Wasser 0,8 %",-
same,Bakteriostatische Wirksamkeit (Wachstum),Pseudomonas aeruginosa; [4],⊕⊕
same,Bakteriostatische Wirksamkeit (Wachstum),Pseudomonas aeruginosa; [5],⊕⊕
same,Bakteriostatische Wirksamkeit (Wachstum),Pseudomonas aeruginosa; [6],⊕⊕
same,Bakteriostatische Wirksamkeit (Wachstum),Pseudomonas aeruginosa; [7],⊕⊕
same,Bakteriostatische Wirksamkeit (Wachstum),Pseudomonas aeruginosa; [8],⊕⊕
same,"Konzentration, durch die Pseudomonas aeruginosa gehemmt wird (minimale Hemmkonzentration)","Pseudomonas aeruginosa; single substance, resistentester Testkeim","0,05%"
same,Bakteriostatische Wirksamkeit (Wachstum),"Escherichia coli; Konzentration in Wasser 0,1 %",-
same,Bakteriostatische Wirksamkeit (Wachstum),"Escherichia coli; Konzentration in Wasser 0,2 %",-
same,Bakteriostatische Wirksamkeit (Wachstum),"Escherichia coli; Konzentration in Wasser 0,4 %",-
same,Bakteriostatische Wirksamkeit (Wachstum),"Escherichia coli; Konzentration in Wasser 0,05 %",-
same,Bakteriostatische Wirksamkeit (Wachstum),"Escherichia coli; Konzentration in Wasser 0,8 %",-
same,Bakteriostatische Wirksamkeit (Wachstum),Escherichia coli; [4],⊕⊕
same,Bakteriostatische Wirksamkeit (Wachstum),Escherichia coli; [5],⊕⊕
same,Bakteriostatische Wirksamkeit (Wachstum),Escherichia coli; [6],⊕⊕
same,Bakteriostatische Wirksamkeit (Wachstum),Escherichia coli; [7],-
same,Bakteriostatische Wirksamkeit (Wachstum),Escherichia coli; [8],-
same,Bakteriostatische Wirksamkeit (Wachstum),"Staphylococcus aureus; Konzentration in Wasser 0,1 %",-
same,Bakteriostatische Wirksamkeit (Wachstum),"Staphylococcus aureus; Konzentration in Wasser 0,2 %",-
same,Bakteriostatische Wirksamkeit (Wachstum),"Staphylococcus aureus; Konzentration in Wasser 0,4 %",-
same,Bakteriostatische Wirksamkeit (Wachstum),"Staphylococcus aureus; Konzentration in Wasser 0,05 %",-
same,Bakteriostatische Wirksamkeit (Wachstum),"Staphylococcus aureus; Konzentration in Wasser 0,8 %",-
same,Bakteriostatische Wirksamkeit (Wachstum),Staphylococcus aureus; [4],⊕⊕
same,Bakteriostatische Wirksamkeit (Wachstum),Staphylococcus aureus; [5],⊕⊕
same,Bakteriostatische Wirksamkeit (Wachstum),Staphylococcus aureus; [6],⊕⊕
same,Bakteriostatische Wirksamkeit (Wachstum),Staphylococcus aureus; [7],-
same,Bakteriostatische Wirksamkeit (Wachstum),Staphylococcus aureus; [8],-
same,Bakteriostatische Wirksamkeit (Wachstum),"Enterococcus faecium; Konzentration in Wasser 0,1 %",-
same,Bakteriostatische Wirksamkeit (Wachstum),"Enterococcus faecium; Konzentration in Wasser 0,2 %",-
same,Bakteriostatische Wirksamkeit (Wachstum),"Enterococcus faecium; Konzentration in Wasser 0,4 %",-
same,Bakteriostatische Wirksamkeit (Wachstum),"Enterococcus faecium; Konzentration in Wasser 0,05 %",-
same,Bakteriostatische Wirksamkeit (Wachstum),"Enterococcus faecium; Konzentration in Wasser 0,8 %",-
same,Bakteriostatische Wirksamkeit (Wachstum),Enterococcus faecium; [4],⊕⊕
same,Bakteriostatische Wirksamkeit (Wachstum),Enterococcus faecium; [5],⊕⊕
same,Bakteriostatische Wirksamkeit (Wachstum),Enterococcus faecium; [6],⊕
same,Bakteriostatische Wirksamkeit (Wachstum),Enterococcus faecium; [7],-
same,Bakteriostatische Wirksamkeit (Wachstum),Enterococcus faecium; [8],-
same,Bakteriostatische Wirksamkeit (Wachstum),"Proteus mirabilis; Konzentration in Wasser 0,1 %",-
same,Bakteriostatische Wirksamkeit (Wachstum),"Proteus mirabilis; Konzentration in Wasser 0,2 %",-
same,Bakteriostatische Wirksamkeit (Wachstum),"Proteus mirabilis; Konzentration in Wasser 0,4 %",-
same,Bakteriostatische Wirksamkeit (Wachstum),"Proteus mirabilis; Konzentration in Wasser 0,05 %",-
same,Bakteriostatische Wirksamkeit (Wachstum),"Proteus mirabilis; Konzentration in Wasser 0,8 %",-
same,Bakteriostatische Wirksamkeit (Wachstum),Proteus mirabilis; [4],⊕⊕
same,Bakteriostatische Wirksamkeit (Wachstum),Proteus mirabilis; [5],⊕⊕
same,Bakteriostatische Wirksamkeit (Wachstum),Proteus mirabilis; [6],⊕⊕
same,Bakteriostatische Wirksamkeit (Wachstum),Proteus mirabilis; [7],-
same,Bakteriostatische Wirksamkeit (Wachstum),Proteus mirabilis; [8],-
